Like-named read-outs stand apart in the source and are kept apart here.
Tests used:
CYP2C9 [1] = biological target: T1, CYP2C9 (Homo sapiens, UniProt P11712); settings: read-out: KS (reported value); ref Hutzler et al. 31; cited from earlier work
CYP2C9 [2] = biological target: T1, CYP2C9; assay: Luminescence titration of solubilized CYP2C9 with type I and type II ligands
P450cam = biological target: T2, P450cam (Pseudomonas putida, UniProt P00183); settings: read-out: KS (literature values); depending on the stereoisomer used; cited from earlier work
T2 sequence (P00183 1-415): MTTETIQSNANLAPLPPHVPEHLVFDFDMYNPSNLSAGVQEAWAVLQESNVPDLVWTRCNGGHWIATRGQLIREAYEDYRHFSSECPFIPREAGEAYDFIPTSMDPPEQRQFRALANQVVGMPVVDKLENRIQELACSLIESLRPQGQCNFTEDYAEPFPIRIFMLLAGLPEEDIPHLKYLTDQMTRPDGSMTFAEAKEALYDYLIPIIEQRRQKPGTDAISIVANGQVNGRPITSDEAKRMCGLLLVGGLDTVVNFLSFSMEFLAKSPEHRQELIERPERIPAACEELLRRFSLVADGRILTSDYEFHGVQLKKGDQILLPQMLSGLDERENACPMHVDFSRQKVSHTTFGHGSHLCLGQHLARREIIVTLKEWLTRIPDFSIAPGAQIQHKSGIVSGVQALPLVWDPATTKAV

CYP3A4 = CYP3A4 (Homo sapiens, UniProt P08684); assay: Luminescence titration of solubilized CYP3A4 with type I and type II ligands
CYP3A4, sequence (P08684 whole entry): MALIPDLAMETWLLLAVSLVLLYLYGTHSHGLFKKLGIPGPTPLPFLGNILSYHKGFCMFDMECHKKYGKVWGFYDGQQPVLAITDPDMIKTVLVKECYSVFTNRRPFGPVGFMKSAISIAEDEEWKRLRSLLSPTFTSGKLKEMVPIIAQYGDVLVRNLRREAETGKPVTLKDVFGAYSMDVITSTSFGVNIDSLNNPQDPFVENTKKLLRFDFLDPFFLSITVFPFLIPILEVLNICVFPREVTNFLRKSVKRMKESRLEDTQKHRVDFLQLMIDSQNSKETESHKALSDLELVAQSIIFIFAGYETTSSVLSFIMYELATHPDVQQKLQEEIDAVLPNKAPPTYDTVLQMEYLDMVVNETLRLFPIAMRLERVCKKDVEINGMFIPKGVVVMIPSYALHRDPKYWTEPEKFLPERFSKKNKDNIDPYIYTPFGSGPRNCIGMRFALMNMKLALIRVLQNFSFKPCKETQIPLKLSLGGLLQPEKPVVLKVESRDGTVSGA

T1 sequence (P11712 whole entry): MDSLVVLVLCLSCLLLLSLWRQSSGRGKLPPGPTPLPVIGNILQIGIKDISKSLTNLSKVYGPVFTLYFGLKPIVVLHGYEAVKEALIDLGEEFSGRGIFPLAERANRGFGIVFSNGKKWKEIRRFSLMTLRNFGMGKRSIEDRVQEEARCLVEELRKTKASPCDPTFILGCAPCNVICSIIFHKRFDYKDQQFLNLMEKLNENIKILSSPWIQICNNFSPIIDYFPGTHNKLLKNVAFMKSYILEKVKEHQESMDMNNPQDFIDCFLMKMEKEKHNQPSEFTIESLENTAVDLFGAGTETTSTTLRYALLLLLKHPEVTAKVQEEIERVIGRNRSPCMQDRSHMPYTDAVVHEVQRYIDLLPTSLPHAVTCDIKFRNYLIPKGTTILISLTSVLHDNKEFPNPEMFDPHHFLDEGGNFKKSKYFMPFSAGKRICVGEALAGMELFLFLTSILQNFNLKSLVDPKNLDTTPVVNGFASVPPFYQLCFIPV

For `CC(C(=O)O)c1ccc(-c2ccccc2)c(F)c1` (centres unmarked) [flurbiprofen], the Kd (CYP2C9 [1]) is listed as 14.1 µM and the Kd (CYP2C9 [2]) is listed as 20.2 ± 1.1 µM.

For `O=C(Nc1ccc2ccccc2c1)c1cc(-c2ccncc2)nc2ccccc12` [QC, N-(naphthalene-2-yl)-2-(pyridine-4-yl)quinoline-4-carboxamide], the Kd (CYP2C9 [2]) was 0.11 ± 0.06 µM.

For `CC12CCC(CC1=O)C2(C)C` (centres unmarked) [camphor], the Kd (P450cam) is listed as 1.6 to 2.6 µM.

`C[C@]12CC[C@H]3[C@@H](CCC4=CC(=O)CC[C@@]43C)[C@@H]1CC[C@@H]2O` [testosterone] showed a Kd (CYP3A4) of 30.5 ± 6.5 µM.

Reference: publication PMC5048684 (The journal of physical chemistry. B, 2016)
